Measured values taken from ChEMBL document CHEMBL1130700, “Antiinflammatory 4,5-diarylimidazoles as selective cyclooxygenase inhibitors” (1998).

test system: Mus musculus; assay: In vivo inhibitory activity by mouse air-pouch assay at dose 2 mg/Kg was determined.; type: functional

Structure (SMILES)	inhibition in vivo at 2 mg/kg
CS(=O)(=O)c1ccc(-c2[nH]c(C(F)(F)F)nc2-c2ccccc2)cc1	95%

species on record: Mus musculus; assay: Effective dose was evaluated by mouse air-pouch assay.; type: functional

Structure (SMILES)	ED50
CS(=O)(=O)c1ccc(-c2[nH]c(C(F)(F)F)nc2-c2ccccc2)cc1	0.38 mg/kg

test system: Mus musculus; assay: In vivo inhibitory activity by mouse air-pouch assay at dose 2 MPK was determined.; type: functional

Structure (SMILES)	inhibition in vivo at 2 mg/kg	ED50
CS(=O)(=O)c1ccc(-c2[nH]c(C(F)(F)F)nc2-c2cccc(Cl)c2)cc1	98%	
CS(=O)(=O)c1ccc(-c2[nH]c(C(F)(F)F)nc2NS(=O)(=O)c2ccc(F)cc2)cc1	33%	
CS(=O)(=O)c1ccc(-c2[nH]c(C(F)(F)F)nc2-c2ccsc2)cc1	0%	
CS(=O)(=O)c1ccc(-c2[nH]c(C(F)(F)F)nc2-c2ccc(F)cc2F)cc1	100%	
CS(=O)(=O)c1ccc(-c2[nH]c(C(F)(F)F)nc2-c2cccs2)cc1	79%	
Cc1cccc(-c2[nH]c(C(F)(F)F)nc2-c2ccc(S(C)(=O)=O)cc2)c1	29%	
CS(=O)(=O)c1ccc(-c2[nH]c(C(F)(F)F)nc2-c2ccccc2Cl)cc1	86%	
CS(=O)(=O)c1ccc(-c2[nH]c(C(F)(F)F)nc2-c2cccnc2)cc1	29%	
CS(=O)(=O)c1ccc(-c2[nH]c(C(F)(F)F)nc2-c2ccc(F)cc2)cc1	99%	
CS(=O)(=O)c1ccc(-c2[nH]c(C(F)(F)F)nc2-c2ccc(Cl)c(Cl)c2)cc1	84%	
CS(=O)(=O)c1ccc(-c2[nH]c(C(F)(F)F)nc2-c2ccc(F)c(F)c2)cc1	68%	
Cc1ccc(-c2[nH]c(C(F)(F)F)nc2-c2ccc(S(C)(=O)=O)cc2)cc1Cl	0%	
Cc1c(F)cccc1-c1[nH]c(C(F)(F)F)nc1-c1ccc(S(C)(=O)=O)cc1	94%	
CS(=O)(=O)c1ccc(-c2[nH]c(C(F)(F)F)nc2-c2cccc(F)c2)cc1	92%	
CS(=O)(=O)c1ccc(-c2[nH]c(C(F)(F)F)nc2-c2ccc(Cl)cc2)cc1	86%	
Cc1ccc(-c2cc(C(F)(F)F)nn2-c2ccc(S(N)(=O)=O)cc2)cc1 [CELECOXIB]		0.33 mg/kg

species on record: Rattus norvegicus; assay: Effective dose was evaluated by rat adjuvant arthritis model.; type: functional

Structure (SMILES)	ED50
CS(=O)(=O)c1ccc(-c2[nH]c(C(F)(F)F)nc2-c2ccccc2)cc1	0.16 mg/kg
Cc1ccc(-c2cc(C(F)(F)F)nn2-c2ccc(S(N)(=O)=O)cc2)cc1 [CELECOXIB]	0.37 mg/kg
